Test results: patent US20080293812A1, “Use of pamoic acid or one of its derivatives, or one of its analogues, for the preparation of a medicament for the treatment of diseases characterised by deposits of amyloid aggregates” (Sigma-Tau Industrie Farmaceutiche Riunite S. P.A.,, priority 2000, published 2008)
Blank lines part the entries; values can stand above or below the compound they belong to.

What was measured:
βA1-42 peptide [1] = molecular target: T1, βA1-42 peptide (Homo sapiens, UniProt P05067); assay: βA1-42 polymerization, Thioflavina T binding assay in 96 well plates; type: biochemical; conditions: concentrations between 0.8 and 100 μM, overnight at 37° C.; read-out: DE50 (the source's name)
T1 construct: βA1-42 peptide (1 mg/ml) was dissolved in H2O/CH3CN (1:1)
T1 sequence (P05067 672-713): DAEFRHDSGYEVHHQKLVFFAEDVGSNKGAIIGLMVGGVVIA
Protocol: The ST1641, ST1722, ST1859, ST1745, ST1800, ST1913 capability to counteract βA1-42 polymerization was evaluated using the Thioflavina “T” binding assay with the following procedure (M. A. Findeis, S. M. Molineaux; Methods in Enzymology 309, 487-488 (1999)): βA1-42 peptide (1 mg/ml) was dissolved in H2O/CH3CN (1:1), lyophilized, solubilized in DMSO+PBS and incubated at 37° C. for 8 days. The peptide was then sonicated and dissolved in PBS (1:5). 96 well plates were prepared with a solution of βA1-42 (40 μl/well) and ST testing compounds (50 μl/well, at concentrations between 0.8 and 100 μM). 50 μl of not aggregated βA1-42 was added after 15 minutes to each well and the plates were incubated overnight at 37° C. with agitation. 200 μl of a reaction mixture containing Thioflavina “T” (10 μM) and Na2HPO4×2H2O (50 μM) solution (pH 6.5) was then added to each well. The fluorescence was measured at 450 nm of excitation and 482 nm of emission with a 96 well fluorimetric plate reader within 60 seconds. At this experimental conditions fluorimetric measures were related to the amount of βA1-42 polymerized peptide.

[2] = tested on: primary cortical neuronal cultures; assay: Inhibition of neurotoxicity induced by β-amyloid25-35 in primary neuronal cultures; type: cell-based, rat
Protocol: To verify the potential neuroprotective activity of sodium pamoate, primary cortical neuronal cultures obtained by microdissection of rat foetal brain at day 16-18 of gestation were used. The cerebral tissue was cultivated in the presence of foetal calf serum and the glial proliferation was inhibited by adding to the incubation medium the antimitotic agent cytosine arabinoside on days 3 and 5 (Andreoni et al. 1997 Exp. Neurology 148:281-287). The cell cultures were exposed to βA25-35 peptide for 5-7 days in the presence or absence of sodium pamoate. The neuroprotective action was evaluated in conditions of neurotoxicity induced by kainic acid to verify the specificity of action of sodium pamoate and its effective antiaggregant activity against the neurotoxic agent. The ability of sodium pamoate to protect the cells against degeneration was also evaluated in neuronal cells cultured in the absence of foetal calf serum in the culture medium. In this case, 24 hours after seeding, the medium was replaced with one without serum containing glutamine, insulin, transferrin, putrescin, progesterone, sodium selenite and Hepes.
Primary cultures of neurons of the […] were taken from the rat foetal brain on days 16-18 of gestation and cultured in foetal calf serum. On incubation days 3 and 5, glial proliferation was inhibited using cytosine arabinoside as an antimitotic agent.
The cultures were exposed to βA25-35 peptide at concentrations of 25 and 50 μM from the day following seeding for 5 to 7 days.
βA25-35 peptide was added to the cultures together with sodium pamoate which had equimolar concentrations or concentrations lower than those of the peptide itself.
The protection against neurotoxicity was evaluated using the colorimetric method and densitometric analysis with an image analyser.

βA1-42 peptide [3] = molecular target: T1, βA1-42 peptide; assay: Antiaggregant effect on β-amyloid1-42 peptide, thioflavin T binding, 5 days incubation; type: biochemical
Protocol: The antiaggregant effects of sodium pamoate on βA1-42 peptide were evaluated by measuring thioflavin T binding according to the following procedure. βA1-42 peptide (cat. Bachem n° H-1368.0500) at a concentration of 0.22 mM was incubated at 37° C. in Tris buffer 100 mM pH 7.4, alone or in the presence of sodium pamoate, for 5 days. The molar ratios of the peptide to sodium pamoate were generally 1:8, 1:4 and 1:2. The solution was centrifuged at 13000 rpm for 5 minutes and the supernatant was eliminated. The precipitate was washed with 500 μl of H2O and centrifuged at 13000 rpm for 5 minutes. In the precipitate, the aggregate in fibril form was detected with 600 μl of thioflavin T (ThT) 2 μM dissolved in glycine-NaOH buffer 50 mM, pH 9.4. After 5 minutes' incubation 500 μl of samples were transferred to a quartz cuvette and the fluorimetric signal was determined at 420 nm excitation and 480 nm emission in a spectrophotofluorimeter. In these conditions the fluorimetric signal is proportional to the amount of amyloid aggregate (Le Vine, Methods in Enzymology, vol. 309 pp 274-284).

cerebellar granules = assay: Apoptosis of cerebellar granules induced by K+ deprivation; type: cell-based, rat; conditions: concentration of 10 μM
Protocol: Granules isolated from cerebellum of 8-day-old rats are differentiated biochemically and morphologically in approximately one week, becoming morphologically mature and with a glutamatergic interneuron phenotype (Gallo et al. 1982 PNAS 79:7919-7923). On depriving the culture medium of serum and reducing the extracellular concentration of potassium ions (25 mM) to the extent of bringing it down to a non-depolarising condition (5 mM), cell death by apoptosis is obtained in approximately 24 hours.
This experimental model made it possible to obtain a “self-fuelling” βA production system where neuronal apoptosis of the cerebellar granules brought about changes in the processing of the amyloid precursor APP, of such a nature as to favour the course of amyloidogenic metabolism. The increase in βA levels, in turn, favours programmed cell death. In this experimental setting, the potential efficacy of the study substances was measured in terms of cell survival at given times (24, 48 and 72 hours) after the reduction of KCl in the medium.
In primary cultures of cerebellar granules of 8-day-old rats, maintained in a culture medium containing KCl 25 mM, the cells were labelled with ^35S-methionine after 6 days in culture. […]
The protection against toxicity was assessed in terms of cell viability at 24, 48 and 72 hours.

βA1-42 peptide [4] = molecular target: T1, βA1-42 peptide; assay: Resistance of β-amyloid1-42 peptide to trypsin digestion, HPLC; type: biochemical
Protocol: βA1-42 peptide was dissolved with 15 μl of NaOH 0.1 M. The solution was brought to pH 7.4 with 15 μl of TRIS buffer 100 mM to which were added 30 μl of buffer alone or 30 μl of buffer solution containing sodium pamoate. The final concentration of βA1-42 peptide was 0.22 mM, and that of sodium pamoate ranged from 0.055 to 1.76 mM, thus with a βA1-42 peptide:sodium pamoate ratio ranging from 4:1 to 1:8. The samples thus prepared were incubated at 37° C. for 5 days; in these conditions βA1-42 peptide formed aggregates in the form of fibrils modifying its structure from random-coil to β-sheet (Zagorski M. G. et al. 1999 “Methodological and Chemical Factors Affecting Amyloid β Peptide Amyloidogenicity” Methods in Enzymology 309:189-204). After 5 days' incubation, 24 μg of trypsin (Merck) were added to each sample, stirred and centrifuged for 1 minute at 13000 rpm; the samples were then left to incubate at 37° C. for 1 hour. When this period had elapsed, the mixture was centrifuged for 5 minutes at 13000 rpm, eliminating 50 μl of supernatant, and the precipitate was dissolved with 40 μl of HCOOH and 10 μl of H2O containing 0.1% of trifluoroacetic acid (TFA). At this point the sample was ready for quantitative HPLC analysis. The HPLC profile of the sample incubated with sodium pamoate was compared with that obtained with peptide alone, thereby quantifying the βA1-42 peptide.

β-amyloid25-35 peptide = molecular target: T2, β-amyloid25-35 peptide (Homo sapiens, UniProt P05067); assay: Antiaggregant effect on β-amyloid25-35 peptide (centrifugation, settled solid); type: biochemical; conditions: sodium pamoate 1 mM, βA25-35 1 mM, phosphate buffer 100 mM pH 5, 24 hours ambient temperature
T2 construct: aqueous solution of βA25-35 2 mM (cat. Bachem n° H-1192.0001); purchased Bachem H-1192.0001
Protocol: To 250 μl of a solution consisting of sodium pamoate 2 mM and phosphate buffer 200 mM pH 5 were added 250 μl of an aqueous solution of βA25-35 2 mM (cat. Bachem n° H-1192.0001). 500 μl of a solution of sodium pamoate 1 mM, βA25-35 1 mM and phosphate buffer 100 mM pH 5 were thus obtained. The same process was carried out for the control sample where sodium pamoate was not present. After 24 hours at ambient temperature, the sample and control were centrifuged at 12000 rpm for 20 minutes, separating the settled solids from the supernatants. To the settled solids were added 250 μL of water. After 3 hours at ambient temperature the samples were centrifuged again at a 12000 rpm for 20 minutes.

[5] = molecular target: T3, previously aggregated βA1-42 peptide (Homo sapiens, UniProt P05067); assay: Dissolution of aggregates of preformed β-amyloid1-42 in fibril form, thioflavin T binding; type: biochemical; conditions: peptide:pamoate ratio 1:8
T3 construct: βA1-42 peptide (cat. Bachem n° H-1368.0500) at a concentration of 0.22 mM; purchased Bachem H-1368.0500
T3 sequence (P05067 672-713): as above
Protocol: This experiment was conducted in order to assess the antiaggregant capacity of sodium pamoate on previously aggregated βA1-42 peptide, according to the following procedure. βA1-42 peptide was left to aggregate for 48 hours at 37° C. in the conditions described in Example 6. Sodium pamoate was added (peptide:pamoate ratio 1:8).

[6] = Capability to cross in vivo the blood brain barrier, 14C-labelled compound; set-up: species or system rats; conditions: i.v.
Protocol: ST1859 inhibited “in vitro” the beta amyloid aggregation and to test its permeability through the intact blood-brain barrier, ST1859, labelled with ^14C(S. A. 50 μCi/mM), was injected i.v. into normal rats at the dose of 18 μCi/rat. The brain and blood were up-taken 30′ after the injection, the blood was then centrifuged (3000 RPM×15 min) and serum obtained was diluted 1:20 with water while brain tissue was homogenized 1:20 w/v in water. To each sample was then added 4 ml of scintillation liquid for aqueous samples The amount of radioactivity was counted with an automatic β-counter (Packard 4600). Data reported in DPM (table 1) were normalized vs. weight or volume of each sample.

[7] = 18 μCi/rat, 30′ after the injection, mean

Compound: CCN(CC)CCOC(=O)c1cc2ccccc2c(Cc2c(O)c(C(=O)OCCN(CC)CC)cc3ccccc23)c1O [ST1800, 2-({4-[(3-{[2-(diethylammonio)ethoxy]carbonyl}-2-hydroxy-1-naphthyl)methyl]-3-hydroxy-2-naphthoyl}oxy)-N,N-diethylethanaminium dichloride]
EC50 (βA1-42 peptide [1]): > 50 µM

Compound: CC(=O)O[C@H](CC(=O)Oc1c(C(=O)O)cc2ccccc2c1Cc1c(O)c(C(=O)O)cc2ccccc12)C[N+](C)(C)C [ST1722, (2R)-2-(acetyloxy)-4-({3-carboxy-1-[(3-carboxy-2-hydroxy-1-naphthyl)methyl]-2-naphthyl}oxy)-N,N,N-trimethyl-4-oxo-1-butanaminium chloride]
EC50 (βA1-42 peptide [1]): 90.3 µM

Compound: βA25-35: β-amyloid25-35 peptide (cat. Bachem n° H-1192.0001), used as neurotoxic agent (GSNKGAIIGLM; Amyloid-beta protein 42; UniProt P05067 696-706, looked up, fragment) [reference compound]
percentage survival ([2]; βA25-35 50 μM alone): 16 % S

Compound: O=C(O)c1cc2ccccc2c(Cc2c([O-])c(C(=O)O)cc3ccccc23)c1[O-].[Na+].[Na+] [ST1641, sodium pamoate]
efficacy in reducing thioflavin T binding as a function of incubation time (βA1-42 peptide [3]; from 1 to 5 days' incubation): progressive increase in efficacy
reduction in the formation of βA1-42 aggregates in the form of fibrils as compared to controls (βA1-42 peptide [3]; βA1-42 0.22 mM, 37° C., 5 days, peptide:pamoate 1:8, 1:4, 1:2, dose-dependent): ≤ 70%
EC50 (βA1-42 peptide [1]): 38.2 µM
protection against the damage induced by amyloid forming during the apoptotic process (cerebellar granules): 89%
increase of trypsin hydrolysis of βA1-42 (βA1-42 peptide [4]; highest dose, peptide:pamoate ratio 1:8): more than 50%
increase of trypsin hydrolysis of βA1-42 (βA1-42 peptide [4]; lowest dose, peptide:pamoate ratio 1:4): more than 40%
inhibition of aggregation of βA25-35 peptide in fibrils (β-amyloid25-35 peptide): complete inhibition
protection against the toxicity induced by βA25-35 [2]: complete protection
percentage survival ([2]; Sodium pamoate 25 μM + βA25-35 50 μM): 100 % S
percentage survival ([2]; Sodium pamoate 25 μM alone): 88 % S
activity in reducing thioflavin T binding ([5]; preformed aggregates): extremely active
reduction in fluorescence as compared to controls ([5]; βA1-42 aggregated 48 hours at 37° C.): 70%

The remaining lines, values ahead:

EC50 (βA1-42 peptide [1]): 7.8 µM
Compound: NCC(=O)Oc1ccc2ccccc2c1Cc1c(O)ccc2ccccc12 [ST1913, 2-({1-[(2-hydroxy-1-naphthyl)methyl]-2-naphthyl}oxy)-2-oxoethanaminium chloride]

EC50 (βA1-42 peptide [1]): 8 µM
Compound: CC(=O)O[C@H](CC(=O)Oc1ccc2ccccc2c1Cc1c(O)ccc2ccccc12)C[N+](C)(C)C [ST1745, (2R)-2-(acetyloxy)-4-({1-[(2-hydroxy-1-naphthyl)methyl]-2-naphthyl}oxy)-N,N,N-trimethyl-4-oxo-1-butanaminium chloride]

EC50 (βA1-42 peptide [1]): 5.4 µM
Brain radioactivity [6, 7]: 35.643 DPM/g
Serum radioactivity [6, 7]: 29.776 DPM/ml
Serum/Brain [6, 7]: 0.833
ability to cross the blood brain barrier ([6]; normal rats): able to cross the blood brain barrier
Compound: Oc1ccc2ccccc2c1Cc1c(O)ccc2ccccc12 [ST1859, 1,1′-methylene-di(2-naphthol)]
